In this experiment the test system is CD2F1 mice, ip reticulum cell sarcoma, survival T/C. Nature of the experiment: NCI In Vivo Anticancer Drug Screen. Data for tumor model Reticulum Cell Sarcoma (Kelley Mouse) (intraperitoneal) in CD2F1 (CDF1) mice. Particulars: endpoint: median survival time, higher = longer survival. How it is done:
The antitumor activity of compounds was measured in mice bearing transplantable tumors. Survival or tumor size were measured and the results are expressed as the measurement made in the treated group (T) divided by the measurement made in the vehicle treated control group (C). The tumor model used in this assay is Reticulum Cell Sarcoma (Kelley Mouse) (intraperitoneal) in CD2F1 (CDF1) mice

Setting [1] is: dose: 4.0 mg/kg/injection, schedule: Q01DX010 (ip), vehicle: saline.

Where “and” joins values, the source holds several entries; their conditions need not be identical. Equal entries are not always repeated. Inconclusive results and toxic doses are left out.

In the case of `C[C@]12C=CC(=O)C=C1CC[C@@H]1[C@@H]2[C@@H](O)C[C@@]2(C)[C@H]1CC[C@]2(O)C(=O)CO`, the T/C (dose: 12.5 mg/kg/injection, schedule: Q01DX010 (sc), vehicle: steriod suspending solution) was 97 % of control and 100 % of control; the T/C (dose: 25.0 mg/kg/injection, schedule: Q01DX010 (sc), vehicle: steriod suspending solution) is 94 % of control and 100 % of control; the T/C (dose: 50.0 mg/kg/injection, schedule: Q01DX010 (sc), vehicle: steriod suspending solution) is 94 % of control and 97 % of control; the T/C (dose: 100.0 mg/kg/injection, schedule: Q01DX010 (sc), vehicle: steriod suspending solution) was 94 % of control and 100 % of control.

For `Nc1nc(F)nc2c1ncn2C1OC(CO)C(O)C1O` (stereo not drawn), the T/C (dose: 0.25 mg/kg/injection, schedule: Q01DX010 (ip), vehicle: saline) is 100 % of control; the T/C (dose: 0.5 mg/kg/injection, schedule: Q01DX010 (ip), vehicle: saline) was 100 % of control and 105 % of control; the T/C (dose: 1.0 mg/kg/injection, schedule: Q01DX010 (ip), vehicle: saline) is 91 % of control and 103 % of control; the T/C (dose: 2.0 mg/kg/injection, schedule: Q01DX010 (ip), vehicle: saline) is 100 % of control and 105 % of control; the T/C under setting [1] is 88 % of control.

Take `O=C(Nc1ccc(C2=NCCN2)cc1)c1ccc(C(=O)Nc2ccc(C3=NCCN3)cc2)c(Cl)c1`: the T/C is, setting by setting: (dose: 2.0 mg/kg/injection, schedule: Q01DX010 (ip), vehicle: other) 111 % of control and 115 % of control; (dose: 4.0 mg/kg/injection, schedule: Q01DX010 (ip), vehicle: other) 113 % of control; (dose: 8.0 mg/kg/injection, schedule: Q01DX010 (ip), vehicle: other) 168 % of control; (dose: 16.0 mg/kg/injection, schedule: Q01DX010 (ip), vehicle: other) 151 % of control and 197 % of control; (dose: 32.0 mg/kg/injection, schedule: Q01DX010 (ip), vehicle: other) 95 % of control.

Turning to `S=P(N1CCOCC1)(N1CC1)N1CC1`, the T/C by setting is: (dose: 2.5 mg/kg/injection, schedule: Q01DX010 (ip), vehicle: saline) 100 % of control and 103 % of control; (dose: 5.0 mg/kg/injection, schedule: Q01DX010 (ip), vehicle: saline) 100 % of control and 106 % of control; (dose: 10.0 mg/kg/injection, schedule: Q01DX010 (ip), vehicle: saline) 100 % of control and 106 % of control.

Regarding `CCCSc1ncnc2nc[nH]c12`, the T/C (dose: 31.3 mg/kg/injection, schedule: Q01DX010 (ip), vehicle: saline) was 100 % of control and 112 % of control; the T/C (dose: 62.5 mg/kg/injection, schedule: Q01DX010 (ip), vehicle: saline) was 96 % of control and 106 % of control; the T/C (dose: 125.0 mg/kg/injection, schedule: Q01DX010 (ip), vehicle: saline) was 96 % of control and 106 % of control; the T/C (dose: 250.0 mg/kg/injection, schedule: Q01DX010 (ip), vehicle: saline) is 109 % of control.

As to `Nc1nc2n[nH]nc2c(=O)[nH]1`, the T/C (dose: 200.0 mg/kg/injection, schedule: Q01DX010 (ip), vehicle: alkali diluted with saline) is 115 % of control and 86 % of control.

Regarding `Nc1nc(N)c2nc(CNc3ccc(C(=O)NC(CCC(=O)O)C(=O)O)cc3)cnc2n1` (stereo not drawn), the T/C reads like this: (dose: 25.0 micrograms/kg/injection, schedule: Q01DX010 (ip), vehicle: other) 105 % of control and 113 % of control; (dose: 50.0 micrograms/kg/injection, schedule: Q01DX010 (ip), vehicle: other) 107 % of control and 121 % of control; (dose: 100.0 micrograms/kg/injection, schedule: Q01DX010 (ip), vehicle: other) 110 % of control and 121 % of control; (dose: 200.0 micrograms/kg/injection, schedule: Q01DX010 (ip), vehicle: other) 94 % of control and 113 % of control.

Take `CN(C)/N=N/c1nc[nH]c1C(N)=O`: the T/C by setting is: (dose: 50.0 mg/kg/injection, schedule: Q01DX010 (ip), vehicle: saline) 100 % of control; (dose: 100.0 mg/kg/injection, schedule: Q01DX010 (ip), vehicle: saline) 107 % of control and 120 % of control; (dose: 400.0 mg/kg/injection, schedule: Q01DX010 (ip), vehicle: saline) 100 % of control.

As to `CC(CCC(C)OS(C)(=O)=O)OS(C)(=O)=O` (stereo not drawn), the T/C is 100 % of control under setting [1]; 103 % of control and 106 % of control (dose: 8.0 mg/kg/injection, schedule: Q01DX010 (ip), vehicle: saline); 100 % of control and 109 % of control (dose: 16.0 mg/kg/injection, schedule: Q01DX010 (ip), vehicle: saline); 109 % of control and 112 % of control (dose: 32.0 mg/kg/injection, schedule: Q01DX010 (ip), vehicle: saline).

(Values after PubChem BioAssay AID340 (DTP/NCI, 2004).)
